Literature values, collected in patent US20160311826A1, “SGC STIMULATORS” (IRONWOOD PHARMACEUTICALS, INC., priority 2013, published 2016).

What was measured:
[1] = test system: obese mice; conditions: cited from earlier work
[2] = test system: NO-deficient rats; conditions: cited from earlier work

Row | SMILES | overactive bladder [1] | bladder dysfunction [2]
1 | O=C(O)CCCCN(CCc1cc(F)ccc1OCc1ccc(-c2ccc(C(F)(F)F)cc2)cc1)Cc1ccc(C(=O)O)cc1 [BAY 60-2770] | ameliorates overactive bladder in obese mice | –
2 | Nc1nc(-c2nn(Cc3ccccc3F)c3ncccc23)ncc1C1CC1 [BAY-2272] | – | protective effects
